What was measured:
β-casein = target: T1, β-casein (Bos taurus, UniProt P02666); assay: Detection of phosphoproteins in SDS-polyacrylamide gels with binding solution; conditions: pentaphosphorylated protein, binding solution with gallium chloride, SDS polyacrylamide mini-gel
T1 sequence (P02666 16-224): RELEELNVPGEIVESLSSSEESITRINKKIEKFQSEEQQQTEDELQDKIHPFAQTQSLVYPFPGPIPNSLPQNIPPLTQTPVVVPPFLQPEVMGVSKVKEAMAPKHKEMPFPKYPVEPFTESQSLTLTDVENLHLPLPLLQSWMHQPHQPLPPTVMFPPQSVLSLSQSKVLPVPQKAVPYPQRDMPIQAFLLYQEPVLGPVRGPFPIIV
Description: (§1) Proteins were loaded in two-fold dilution series on SDS polyacrylamide mini-gels from 2 ng-1000 ng; each protein sample was done in series in four replicate gels. The phosphoproteins were α-casein (7 or 8 phosphates); dephosphorylated α-casein (1 or 2 phosphates); β-casein (5 phosphates); ovalbumin (2 phosphates) and pepsin (1 phosphate). BSA contains no phosphates and was used as a negative control.
(§2) Phosphoproteins were separated by SDS-polyacrylamide gel electrophoresis utilizing a 4% T, 2.6% C stacking gel, pH 6.8 and 13% T, 2.6% C separating gel, and pH 8.8, according to standard procedures. % T is the total monomer concentration (acrylamide+crosslinker) expressed in grams per 100 mL and % C is the percentage crosslinker (e.g., N,N′-methylene-bis-acrylamide, N,N′-diacryloylpiperazine or other suitable agent). The separating gels were 8 cm wide by 5 cm high and […] in thickness. After electrophoresis, the gels were fixed by immersing them in 100 mL 45% methanol and 5% acetic acid for 90 minutes. The gels were washed twice in water for a total of 30 minutes. The gels were then added to a binding solution of the invention (Example 1E) and incubated for 120 minutes at room temperature with gentle orbital shaking, typically 50 rpm. The binding buffer contained 50 mM NaOAc (pH 4.0), 250 mM sodium chloride, 20% v/v 1,2-propanediol, 1 μM gallium chloride. […]

pepsin = pepsin (Sus scrofa, UniProt P00791); assay: as above; conditions: monophosphorylated protein, binding solution with gallium chloride, SDS polyacrylamide mini-gel
Description: as §1, §2

ovalbumin = target: T2, ovalbumin (Gallus gallus, UniProt P01012); assay: Fluorescence polarization of Compound 2-Ga3+ with phosphoprotein; assay type: binding; conditions: 1.0 μM Compound 2, 100 μM ovalbumin plus 1 μM gallium chloride
T2 construct: purchased Sigma Chemical Company A-7641
T2 sequence (P01012 1-386): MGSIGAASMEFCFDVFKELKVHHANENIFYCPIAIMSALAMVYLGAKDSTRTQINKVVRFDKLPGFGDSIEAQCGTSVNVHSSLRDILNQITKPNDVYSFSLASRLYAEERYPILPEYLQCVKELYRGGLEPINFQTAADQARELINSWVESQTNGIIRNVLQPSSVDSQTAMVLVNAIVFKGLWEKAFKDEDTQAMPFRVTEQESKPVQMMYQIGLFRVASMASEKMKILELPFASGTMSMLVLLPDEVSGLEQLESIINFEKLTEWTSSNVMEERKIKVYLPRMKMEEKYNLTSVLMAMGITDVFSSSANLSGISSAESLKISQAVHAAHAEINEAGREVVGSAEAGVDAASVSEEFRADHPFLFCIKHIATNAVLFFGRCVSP
Description: (§3) First, an assay was conducted with a (1) phosphoprotein (ovalbumin) and a (2) control non-phosphorylated protein (lysozyme). A modified binding solution containing 1.0 μM Compound 2 was incubated in 50 mM 2-(N-morpholino)ethanesulfonic acid (pH 3.0 to 3.5), 500 mM NaCl at room temperature in parallel to solutions containing, in addition, (a) 1 μM gallium chloride, (b) 100 μM lysozyme plus 1 μM gallium chloride, or (c) and 100 μM ovalbumin plus 1 μM gallium chloride. The fluorescence polarization of the resulting solutions was then measured in a fluorescence spectrophotometer with excitation at 530 nm and emission at 545 to 700 nm. The integrated polarized emission spectra yielded anisotropy “r values” of: r=0.10+/−0.003+/−0.02 (Compound 2 plus gallium); r=0.10+/−0.002 (Compound 2 plus lysozyme non-phosphorylated control); r=0.34+/−0.002 (Compound 2 plus gallium plus ovalbumin), indicating phosphorylation-dependent binding of the Compound 2 to this phosphoprotein (see FIG. 10A)

lysozyme = target: T3, lysozyme (Gallus gallus, UniProt P00698); assay: Fluorescence polarization of Compound 2-Ga3+ with non-phosphorylated control protein; assay type: binding; conditions: 1.0 μM Compound 2, 100 μM lysozyme plus 1 μM gallium chloride
T3 construct: purchased Sigma Chemical Company L-7651
Description: as §3

Sequence of pepsin (P00791 60-385): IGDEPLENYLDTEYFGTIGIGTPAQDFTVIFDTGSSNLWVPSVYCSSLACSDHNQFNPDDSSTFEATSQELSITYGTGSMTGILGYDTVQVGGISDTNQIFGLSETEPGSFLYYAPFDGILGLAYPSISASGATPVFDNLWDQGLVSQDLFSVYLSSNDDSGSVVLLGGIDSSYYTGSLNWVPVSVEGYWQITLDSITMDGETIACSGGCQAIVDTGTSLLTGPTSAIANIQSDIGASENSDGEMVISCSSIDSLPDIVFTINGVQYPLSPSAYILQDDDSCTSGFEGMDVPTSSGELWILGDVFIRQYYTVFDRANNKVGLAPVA
T3 sequence (P00698 19-147): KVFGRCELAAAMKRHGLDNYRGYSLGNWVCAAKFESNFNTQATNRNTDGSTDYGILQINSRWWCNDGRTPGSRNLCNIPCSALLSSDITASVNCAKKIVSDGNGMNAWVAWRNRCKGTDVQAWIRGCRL

amount detectable in gel (β-casein): 1 to 2 ng | amount detectable in gel (pepsin): 8 ng | anisotropy r value (ovalbumin): 0.34+/−0.002 | anisotropy r value (lysozyme): 0.10+/−0.002
Substance: Rhod-5F [Compound 2]
